ChEMBL document CHEMBL1138198, “Carbonic anhydrase inhibitors: DNA cloning and inhibition studies of the alpha-carbonic anhydrase from Helicobacter pylori, a new target for developing sulfonamide and sulfamate gastric drugs” (J Med Chem, 2006)
pKi: −log10 of the molar value.

Columns and labels:
Carbonic anhydrase = target: T1, Carbonic anhydrase (Helicobacter pylori (strain ATCC 700392 / 26695) (Campylobacterpylori), UniProt O24855)
T1 sequence (O24855 whole entry): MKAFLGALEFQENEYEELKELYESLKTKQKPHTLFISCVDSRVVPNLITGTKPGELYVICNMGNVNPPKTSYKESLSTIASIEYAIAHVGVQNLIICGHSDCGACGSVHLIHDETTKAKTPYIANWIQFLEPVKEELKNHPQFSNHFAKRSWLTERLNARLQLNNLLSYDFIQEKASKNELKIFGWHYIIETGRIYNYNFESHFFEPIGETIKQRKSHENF
Description: Inhibition of Helicobacter pylori recombinant carbonic anhydrase by stopped-flow CO2 hydrase assay

Carbonic anhydrase 1 = Carbonic anhydrase 1 (Homo sapiens, UniProt P00915)
Carbonic anhydrase 1, sequence (P00915 whole entry): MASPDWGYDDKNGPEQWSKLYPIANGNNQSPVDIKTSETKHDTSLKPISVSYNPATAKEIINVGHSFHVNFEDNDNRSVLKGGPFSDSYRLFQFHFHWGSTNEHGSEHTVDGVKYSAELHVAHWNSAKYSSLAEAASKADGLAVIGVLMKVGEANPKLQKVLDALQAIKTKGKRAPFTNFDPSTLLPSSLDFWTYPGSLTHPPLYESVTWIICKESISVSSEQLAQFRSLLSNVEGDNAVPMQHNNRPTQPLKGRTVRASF
Description: Inhibition of human recombinant carbonic anhydrase 1 by stopped-flow CO2 hydrase assay

**Q.** `Nc1ccc(S(=O)(=O)NCc2ccc(S(N)(=O)=O)cc2)cc1` was tested. Which pKi (Carbonic anhydrase) did it give?
**A.** 6.88

**Q.** With `Nc1ccc(S(N)(=O)=O)cc1Cl` as the compound, how does the pKi (Carbonic anhydrase) read?
**A.** 6.42

**Q.** How did the pKi (Carbonic anhydrase) turn out when `Nc1ccc(S(=O)(=O)Nc2nnc(S(N)(=O)=O)s2)cc1` was run?
**A.** 6.57

**Q.** With `Nc1ccc(S(N)(=O)=O)cc1Br` as the compound, how does the pKi (Carbonic anhydrase) read?
**A.** 6.34

**Q.** How did the pKi (Carbonic anhydrase) turn out when `CC(C)(C)c1ccc(S(=O)(=O)CNc2ccc(S(N)(=O)=O)cc2)cc1` was run?
**A.** 7.51

**Q.** And the pKi (Carbonic anhydrase 1)?
**A.** 4.92

**Q.** How did the pKi (Carbonic anhydrase) turn out when `CC(C)(C)c1ccc(S(=O)(=O)Nc2ccccc2S(N)(=O)=O)cc1` was run?
**A.** 6.19

**Q.** What about the pKi (Carbonic anhydrase 1) of the same compound?
**A.** 4.83

**Q.** How did the pKi (Carbonic anhydrase) turn out when `NCc1ccc(S(N)(=O)=O)cc1` [MAFENIDE] was run?
**A.** 6.06

**Q.** Which results are given for `CC(C)(C)c1ccc(C(=O)Nc2ccc(S(N)(=O)=O)cc2)cc1`?
**A.** pKi (Carbonic anhydrase): 7.10; pKi (Carbonic anhydrase 1): 4.85

**Q.** How did the pKi (Carbonic anhydrase) turn out when `CC(C)(C)c1ccc(S(=O)(=O)CCNc2ccc(S(N)(=O)=O)cc2)cc1` was run?
**A.** 7.57

**Q.** And the pKi (Carbonic anhydrase 1)?
**A.** 4.92

**Q.** `Nc1nccc(Nc2ccc(S(N)(=O)=O)cc2)n1` was tested. Which pKi (Carbonic anhydrase) did it give?
**A.** 7.08

**Q.** Which results are given for `CC(C)(C)c1ccc(S(=O)(=O)Nc2nnc(S(N)(=O)=O)s2)cc1`?
**A.** pKi (Carbonic anhydrase): 7.92; pKi (Carbonic anhydrase 1): 6.47

**Q.** How did the pKi (Carbonic anhydrase) turn out when `Nc1ccc(S(=O)(=O)NCCc2ccc(S(N)(=O)=O)cc2)cc1` was run?
**A.** 6.94

**Q.** `Cc1ccc(S(N)(=O)=O)cc1` [P-TOLUENESULFONAMIDE] was tested. Which pKi (Carbonic anhydrase) did it give?
**A.** 6.35

**Q.** How did the pKi (Carbonic anhydrase) turn out when `CC(C)(C)c1ccc(C(=O)Nc2nnc(S(N)(=O)=O)s2)cc1` was run?
**A.** 7.89

**Q.** What about the pKi (Carbonic anhydrase 1) of the same compound?
**A.** 6.27

**Q.** With `NS(=O)(=O)c1ccc(C(=O)O)cc1` [CARZENIDE] as the compound, how does the pKi (Carbonic anhydrase) read?
**A.** 5.98

**Q.** What does the source list for `CC(C)(C)c1ccc(S(=O)(=O)Nc2cccc(S(N)(=O)=O)c2)cc1`?
**A.** pKi (Carbonic anhydrase): 6.50; pKi (Carbonic anhydrase 1): 5.02

**Q.** `CC(C)(C)c1ccc(C(=O)Nc2ccccc2S(N)(=O)=O)cc1` was tested. Which pKi (Carbonic anhydrase) did it give?
**A.** 6.27

**Q.** And the pKi (Carbonic anhydrase 1)?
**A.** 4.91

**Q.** With `CC(C)(C)c1ccc(C(=O)Nc2cccc(S(N)(=O)=O)c2)cc1` as the compound, how does the pKi (Carbonic anhydrase) read?
**A.** 6.50

**Q.** What about the pKi (Carbonic anhydrase 1) of the same compound?
**A.** 4.97

**Q.** `CCN[C@H]1CN(CCCOC)S(=O)(=O)c2sc(S(N)(=O)=O)cc21` [BRINZOLAMIDE] was tested. Which pKi (Carbonic anhydrase) did it give?
**A.** 6.68

**Q.** How did the pKi (Carbonic anhydrase) turn out when `Cn1nc(S(N)(=O)=O)sc1=N` was run?
**A.** 6.26

**Q.** With `CC(C)(C)c1ccc(S(=O)(=O)Nc2ccc(S(N)(=O)=O)cc2)cc1` as the compound, how does the pKi (Carbonic anhydrase) read?
**A.** 7.22

**Q.** What about the pKi (Carbonic anhydrase 1) of the same compound?
**A.** 4.89

**Q.** With `Nc1ccc(S(N)(=O)=O)cc1F` as the compound, how does the pKi (Carbonic anhydrase) read?
**A.** 5.91

**Q.** How did the pKi (Carbonic anhydrase) turn out when `NS(=O)(=O)c1ccc(S(=O)(=O)Nc2cccc3c(Cl)c[nH]c23)cc1` was run?
**A.** 6.38

**Q.** `Nc1ccc(S(N)(=O)=O)cc1I` was tested. Which pKi (Carbonic anhydrase) did it give?
**A.** 6.29

**Q.** `CC(C)(C)c1ccc(C(=O)NCCc2ccc(S(N)(=O)=O)cc2)cc1` was tested. Which pKi (Carbonic anhydrase) did it give?
**A.** 7.29

**Q.** What about the pKi (Carbonic anhydrase 1) of the same compound?
**A.** 4.90

**Q.** Which results are given for `CC(C)(C)c1ccc(C(=O)NCc2ccc(S(N)(=O)=O)cc2)cc1`?
**A.** pKi (Carbonic anhydrase): 7.21; pKi (Carbonic anhydrase 1): 4.88
